Results reported in patent publication US9828396B2, “Alkyne compounds for treatment of complement mediated disorders” (Achillion Pharmaceuticals, Inc., priority 2014, dated 2017).

Biological target: Human factor D (Homo sapiens (Human), UniProt P00746)
Assay: Human Factor D Assay
Type: biochemical
Settings: Human factor D 80 nM, substrate Z-L-Lys-SBzl, assay of Example 12
Experimental: Example 12. Human Factor D Assay
Human factor D (purified from human serum, Complement Technology, Inc.) at 80 nM final concentration is incubated with test compound at various concentrations for 5 minutes at room temperature in 50 mM Tris, 1M NaCl, pH 7.5. A synthetic substrate Z-L-Lys-SBzl and DTNB (Ellman's reagent) are added to final concentrations of 100 μM each. The increase in color is recorded at OD405 nm in a microplate in kinetic mode over 30 minutes with 30 second time points in a spectrofluorimeter. IC50 values are calculated by non-linear regression from the percentage of inhibition of complement factor D activity as a function of test compound concentration.

Human factor D, sequence (P00746 26-253): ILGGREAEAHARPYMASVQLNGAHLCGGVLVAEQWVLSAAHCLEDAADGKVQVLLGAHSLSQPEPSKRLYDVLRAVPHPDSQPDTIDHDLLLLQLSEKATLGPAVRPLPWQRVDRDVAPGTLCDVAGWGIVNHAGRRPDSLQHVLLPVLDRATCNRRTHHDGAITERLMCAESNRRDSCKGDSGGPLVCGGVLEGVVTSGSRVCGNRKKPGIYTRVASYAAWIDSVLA

Q: With `NC(=O)c1nn(CC(=O)N2C[C@H](F)C[C@H]2C(=O)Nc2cccc(OC(F)(F)F)c2F)c2ccc(C#Cc3ncccn3)cc12` [Compound 38, 1-(2-((2S,4R)-4-fluoro-2-(2-fluoro-3-(trifluoromethoxy)phenyl-carbamoyl)pyrrolidin-1-yl)-2-oxoethyl)-5-(pyrimidin-2-ylethynyl)-1H-indazole-3-carboxamide] as the molecule, how does the IC50 read?
A: The IC50 was < 1000 nM.

Q: How did the IC50 turn out when `NC(=O)c1nn(CC(=O)N2C[C@H](F)C[C@H]2C(=O)Nc2cccc(Br)n2)c2ccc(C#Cc3ncccn3)cc12` [Compound 39, 1-(2-((2S,4R)-2-(6-bromopyridin-2-ylcarbamoyl)-4-fluoropyrrolidin-1-yl)-2-oxoethyl)-5-(pyrimidin-2-ylethynyl)-1H-indazole-3-carboxamide] was run?
A: Its IC50 is < 1000 nM.

Q: How did the IC50 turn out when `NC(=O)c1nn(CC(=O)N2C[C@H](F)C[C@H]2C(=O)NCc2cccc(Cl)c2F)c2ccc(C#Cc3ncc(F)cn3)cc12` [Compound 40, 1-(2-((2S,4R)-2-(3-chloro-2-fluorobenzylcarbamoyl)-4-fluoropyrrolidin-1-yl)-2-oxoethyl)-5-((5-fluoropyrimidin-2-yl)ethynyl)-1H-indazole-3-carboxamide] was run?
A: The IC50 was < 1000 nM.

Q: How did the IC50 turn out when `NC(=O)c1nn(CC(=O)N2[C@@H]3C[C@@H]3C[C@H]2C(=O)Nc2cccc(Br)n2)c2ccc(C#Cc3ncccn3)cc12` [Compound 41, 1-(2-((1R,3S,5R)-3-(6-bromopyridin-2-ylcarbamoyl)-2-azabicyclo[3.1.0]hexan-2-yl)-2-oxoethyl)-5-(pyrimidin-2-ylethynyl)-1H-indazole-3-carboxamide] was run?
A: The IC50 was < 1000 nM.

Q: With `CC(=O)c1cn(CC(=O)N2C[C@H](F)C[C@H]2C(=O)Nc2cccc(Br)n2)c2ccc(C#Cc3ncccn3)cc12` [Compound 42, (2S,4R)-1-(2-(3-acetyl-5-(pyrimidin-2-ylethynyl)-1H-indol-1-yl)acetyl)-N-(6-bromopyridin-2-yl)-4-fluoropyrrolidine-2-carboxamide] as the molecule, how does the IC50 read?
A: The IC50 was < 1000 nM.

Q: With `NC(=O)c1nn(CC(=O)N2[C@@H]3C[C@@H]3C[C@H]2C(=O)Nc2cccc(Br)n2)c2ccc(C#Cc3ncc(F)cn3)cc12` [Compound 43, 1-(2-((1R,3S,5R)-3-(6-bromopyridin-2-ylcarbamoyl)-2-azabicyclo[3.1.0]hexan-2-yl)-2-oxoethyl)-5-((5-fluoropyrimidin-2-yl)ethynyl)-1H-indazole-3-carboxamide] as the molecule, how does the IC50 read?
A: Its IC50 is < 1000 nM.

Q: Which IC50 does the source give for `CC1(C)CCCC(NC(=O)[C@@H]2C[C@@H](F)CN2C(=O)Cn2nc(C(N)=O)c3cc(C#Cc4ncccn4)ccc32)C1` (stereo partly drawn) [Compound 44, 1-(2-((2S,4R)-2-(3,3-dimethylcyclohexylcarbamoyl)-4-fluoropyrrolidin-1-yl)-2-oxoethyl)-5-(pyrimidin-2-ylethynyl)-1H-indazole-3-carboxamide] here?
A: Its IC50 is < 1000 nM.

Q: How did the IC50 turn out when `CC(C)=C(F)CNC(=O)[C@@H]1C[C@@H](F)CN1C(=O)Cn1nc(C(N)=O)c2cc(C#Cc3ncccn3)ccc21` [Compound 45, 1-(2-((2S,4R)-4-fluoro-2-(2-fluoro-3-methylbut-2-enylcarbamoyl)pyrrolidin-1-yl)-2-oxoethyl)-5-(pyrimidin-2-ylethynyl)-1H-indazole-3-carboxamide] was run?
A: The IC50 was < 1000 nM.

Q: With `NC(=O)c1nn(CC(=O)N2C[C@H](F)C[C@H]2C(=O)Nc2cccc(Br)n2)c2ccc(C#Cc3ncc(F)cn3)cc12` [Compound 46, 1-(2-((2S,4R)-2-(6-bromopyridin-2-ylcarbamoyl)-4-fluoropyrrolidin-1-yl)-2-oxoethyl)-5-((5-fluoropyrimidin-2-yl)ethynyl)-1H-indazole-3-carboxamide] as the molecule, how does the IC50 read?
A: The IC50 was < 1000 nM.

Q: How did the IC50 turn out when `NC(=O)c1nn(CC(=O)N2C[C@H](F)C[C@H]2C(=O)Nc2cccc(-c3ccccc3Cl)n2)c2ccc(C#Cc3ncccn3)cc12` [Compound 47, 1-(2-((2S,4R)-2-(6-(2-chlorophenyl)pyridin-2-ylcarbamoyl)-4-fluoropyrrolidin-1-yl)-2-oxoethyl)-5-(pyrimidin-2-ylethynyl)-1H-indazole-3-carboxamide] was run?
A: Its IC50 is < 1000 nM.

Q: With `NC(=O)c1nn(CC(=O)N2C[C@H](F)C[C@H]2C(=O)Nc2cccc(Br)n2)c2ccc(C#Cc3ccccn3)cc12` [Compound 48, 1-(2-((2S,4R)-2-(6-bromopyridin-2-ylcarbamoyl)-4-fluoropyrrolidin-1-yl)-2-oxoethyl)-5-(pyridin-2-ylethynyl)-1H-indazole-3-carboxamide] as the molecule, how does the IC50 read?
A: Its IC50 is < 1000 nM.

Q: `NC(=O)c1nn(CC(=O)N2C[C@H](F)C[C@H]2C(=O)Nc2cccc(-c3ccc(F)cc3Cl)c2F)c2ccc(C#Cc3ncccn3)cc12` [Compound 49, 1-(2-((2S,4R)-2-(2′-chloro-2,4′-difluorobiphenyl-3-ylcarbamoyl)-4-fluoropyrrolidin-1-yl)-2-oxoethyl)-5-(pyrimidin-2-ylethynyl)-1H-indazole-3-carboxamide] was tested. Which IC50 did it give?
A: The IC50 was < 1000 nM.

Q: How did the IC50 turn out when `NC(=O)c1nn(CC(=O)N2C[C@H](F)C[C@H]2C(=O)Nc2cccc(-c3cn[nH]c3)n2)c2ccc(C#Cc3ncccn3)cc12` [Compound 50, 1-(2-((2S,4R)-2-(6-(1H-pyrazol-4-yl)pyridin-2-ylcarbamoyl)-4-fluoropyrrolidin-1-yl)-2-oxoethyl)-5-(pyrimidin-2-ylethynyl)-1H-indazole-3-carboxamide] was run?
A: Its IC50 is < 1000 nM.

Q: `NC(=O)c1nn(CC(=O)N2[C@@H]3CC(F)(F)[C@@H]3C[C@H]2C(=O)NCc2cccc(Cl)c2F)c2ccc(C#Cc3ncccn3)cc12` [Compound 51, 1-(2-((1R,3S,5R)-3-(3-chloro-2-fluorobenzylcarbamoyl)-6,6-difluoro-2-azabicyclo[3.2.0]heptan-2-yl)-2-oxoethyl)-5-(pyrimidin-2-ylethynyl)-1H-indazole-3-carboxamide] was tested. Which IC50 did it give?
A: The IC50 was 1000 to 10000 nM.

Q: With `NC(=O)c1nn(CC(=O)N2CC[C@@H](O)[C@H]2C(=O)NCc2cccc(Cl)c2F)c2ccc(C#Cc3ncccn3)cc12` [Compound 52, 1-(2-((2S,3R)-2-(3-chloro-2-fluorobenzylcarbamoyl)-3-hydroxypyrrolidin-1-yl)-2-oxoethyl)-5-(pyrimidin-2-ylethynyl)-1H-indazole-3-carboxamide] as the molecule, how does the IC50 read?
A: Its IC50 is < 1000 nM.

Q: Which IC50 does the source give for `NC(=O)c1nn(CC(=O)N2[C@@H]3C[C@@H]3C[C@H]2C(=O)Nc2cccc(-c3ccccc3Cl)c2F)c2ccc(C#Cc3ncc(F)cn3)cc12` [Compound 53, 1-(2-((1R,3S,5R)-3-(2′-chloro-2-fluorobiphenyl-3-ylcarbamoyl)-2-azabicyclo[3.1.0]hexan-2-yl)-2-oxoethyl)-5-((5-fluoropyrimidin-2-yl)ethynyl)-1H-indazole-3-carboxamide] here?
A: The IC50 was < 1000 nM.

Q: Which IC50 does the source give for `NC(=O)c1nn(CC(=O)N2[C@@H]3C[C@@H]3C[C@H]2C(=O)Nc2cccc(C3CC3)n2)c2ccc(C#Cc3ncccn3)cc12` [Compound 54, 1-(2-((1R,3S,5R)-3-(6-cyclopropylpyridin-2-ylcarbamoyl)-2-azabicyclo[3.1.0]hexan-2-yl)-2-oxoethyl)-5-(pyrimidin-2-ylethynyl)-1H-indazole-3-carboxamide] here?
A: The IC50 was < 1000 nM.

Q: With `NC(=O)c1nn(CC(=O)N2C[C@H](F)C[C@H]2C(=O)Nc2cccc(-c3ccccc3Cl)c2F)c2ccc(C#Cc3ncc(F)cn3)cc12` [Compound 55, 1-(2-((2S,4R)-2-(2′-chloro-2-fluorobiphenyl-3-ylcarbamoyl)-4-fluoropyrrolidin-1-yl)-2-oxoethyl)-5-((5-fluoropyrimidin-2-yl)ethynyl)-1H-indazole-3-carboxamide] as the molecule, how does the IC50 read?
A: The IC50 was < 1000 nM.

Q: For `NC(=O)c1nn(CC(=O)N2[C@@H]3C[C@@H]3C[C@H]2C(=O)Nc2cccc(Cl)n2)c2ccc(C#Cc3ncccn3)cc12` [Compound 56, 1-(2-((1R,3S,5R)-3-(6-chloropyridin-2-ylcarbamoyl)-2-azabicyclo[3.1.0]hexan-2-yl)-2-oxoethyl)-5-(pyrimidin-2-ylethynyl)-1H-indazole-3-carboxamide], which IC50 is on record?
A: The IC50 was < 1000 nM.

Q: `N#Cc1cccc(NC(=O)[C@@H]2C[C@H]3C[C@H]3N2C(=O)Cn2nc(C(N)=O)c3cc(C#Cc4ncccn4)ccc32)n1` [Compound 57, 1-(2-((1R,3S,5R)-3-(6-cyanopyridin-2-ylcarbamoyl)-2-azabicyclo[3.1.0]hexan-2-yl)-2-oxoethyl)-5-(pyrimidin-2-ylethynyl)-1H-indazole-3-carboxamide] was tested. Which IC50 did it give?
A: Its IC50 is < 1000 nM.

Q: `NC(=O)c1nn(CC(=O)N2[C@@H]3C[C@@H]3C[C@H]2C(=O)Nc2cccc(Br)n2)c2ccc(C#Cc3ccc(F)cn3)cc12` [Compound 58, 1-(2-((1R,3S,5R)-3-(6-bromopyridin-2-ylcarbamoyl)-2-azabicyclo[3.1.0]hexan-2-yl)-2-oxoethyl)-5-((5-fluoropyridin-2-yl)ethynyl)-1H-indazole-3-carboxamide] was tested. Which IC50 did it give?
A: The IC50 was < 1000 nM.

Q: How did the IC50 turn out when `NC(=O)c1nn(CC(=O)N2[C@@H]3C[C@@H]3C[C@H]2C(=O)Nc2cccc(Br)n2)c2ccc(C#Cc3ccc(C(F)(F)F)cn3)cc12` [Compound 59, 1-(2-((1R,3S,5R)-3-(6-bromopyridin-2-ylcarbamoyl)-2-azabicyclo[3.1.0]hexan-2-yl)-2-oxoethyl)-5-((5-(trifluoromethyl)pyridin-2-yl)ethynyl)-1H-indazole-3-] was run?
A: The IC50 was < 1000 nM.

Q: Which IC50 does the source give for `N#Cc1ccc(C#Cc2ccc3c(c2)c(C(N)=O)nn3CC(=O)N2[C@@H]3C[C@@H]3C[C@H]2C(=O)Nc2cccc(Br)n2)nc1` [Compound 60, 1-(2-((1R,3S,5R)-3-(6-bromopyridin-2-ylcarbamoyl)-2-azabicyclo[3.1.0]hexan-2-yl)-2-oxoethyl)-5-((5-cyanopyridin-2-yl)ethynyl)-1H-indazole-3-carboxamide] here?
A: The IC50 was < 1000 nM.

Q: With `NC(=O)c1nn(CC(=O)N2[C@@H]3C[C@@H]3C[C@H]2C(=O)Nc2cccc(Br)n2)c2ccc(C#Cc3ncc(C(F)(F)F)cn3)cc12` [Compound 61, 1-(2-((1R,3S,5R)-3-(6-bromopyridin-2-ylcarbamoyl)-2-azabicyclo[3.1.0]hexan-2-yl)-2-oxoethyl)-5-((5-(trifluoromethyl)pyrimidin-2-yl)ethynyl)-1H-indazole-3-carboxamide] as the molecule, how does the IC50 read?
A: Its IC50 is < 1000 nM.
